Results reported in patent US20160106107A1, “Compositions and Methods for Treating Microorganism” (priority 2006, published 2016).
“And” between values parts separate entries of the source, which are not always exact repeats. Identical values can stand only once. Like-named read-outs stand apart in the source and are kept apart here.

Assays:
[1] = system: Pseudomonas syringae pv. phaseolicola HB-9 planktonic
[2] = system: Pseudomonas syringae pv. phaseolicola HB-9 biofilm
[3] = system: Erwinia carotovora subsp. carotovora (Ecc) biofilm; assay: Ecc biofilm susceptibility, 24 h contact time; type: cell-based; settings: for Ecc biofilm cell counts (unlabelled fourth line = mean of 3) / Log reduction of Ecc biofilms / Ecc biofilm cell counts (single replicates): 24 h contact time
Description: Carotovora (Ecc), the Soft Rot of Vegetables Pathogen, in Comparison to Nanocrystalline Silver Powder

[4] = system: naturally occurring microorganisms (bacteria and fungi) on bean seed surface; settings: for Bacterial reduction / Fungal reduction / Total microbial reduction: vs untreated seeds, Experiments 1-3
Description: They included seeds that would normally be discarded during processing in a commercial seed treatment facility—damaged, discoloured, shrivelled or small seeds. Due to the fact they were not cleaned these seeds still contain soil, dirt, plant debris, etc. Therefore, this seed lot was expected to provide a good model for a high natural microbial challenge, with good diversity of organisms and high microbial recovery expected.
These seeds were processed and cleaned in a commercial seed treatment facility. Processing leads to rejection of small, damaged, and/or discoulored seeds, and thus a healthier overall seed lot. After processing, seeds were washed and cleaned, resulting in a significant reduction in soil, dirt or debris.
Experiments were conducted by treating lots of ‘Othello’ and ‘AC Polaris’ seeds with challenges described in Table 10. Seeds were placed individually onto wells of 12-well microtiter plates and treated for 1 h with silver and/or water. After treatment, seeds were rinsed by dipping into fresh phosphate buffer and subsequently transferred to a new 12-well microtiter plate containing fresh phosphate buffer and sonicated for 15-30 min. Sonication allowed for surviving bacterial and fungal to be removed from the seed surface and recovered into the liquid. After 6 days, each of the wells containing seeds were scored based on both: • the turbidity of the liquid in which they were originally immersed for treatment, on day 6. • seed surface area covered by bacterial and/or fungal colonization, also on day 6.
Six seeds were scored in each experiment and each experiment was repeated 3 times independently. Numbers presented on Tables 11, 13, and 15 represent the mean of 6 scores. […] Total microbial scores (bacteria and fungi together) and are represented as percentage of killing on Tables 12, 14, and 16.

[5] = system: dry bean (Phaseolus vulgaris L) seeds, cultivar Othello; assay: Germination of dry bean seeds with aqueous seed coating under high bacterial load; type: in vivo; settings: for # seeds germinated / % germination / Day to 25% germination: high bacterial load
Experimental: The efficacy of high valency silver ions produced by oxysilver nitrate was evaluated as a seed treatment on diseased dry bean seeds. The oxysilver nitrate was applied as an aqueous seed coating on the germination of dry bean (Phaseolus vulgaris L).
Seeds were placed on blotters in Petri plates, were soaked in an excess of water for 3 days, then drained on day 4. The 3-day period of excess water created a very high bacterial load′ on the germinating seeds and high disease pressure due to pathogenic, saprophytic and soft-rot bacteria. This disease pressure was so extreme that the germination rates for experiments 2-5 were essentially zero due to being overwhelmed by the microbial growth.

Orford (Soybean) seeds = settings: for % of seeds germinated: Day 7 (speed of germination); for % germination: Day 14
Description: Germination on blotters was scored at 7- and 14-days. Emergence from soil was scored at 21- and 28-days.
To treat seeds, one hundred seeds were placed in a 50-mL Falcon tube and combined with the treatment solution. Seeds were mixed with the treatment for 5-min by gently rolling and inverting the Falcon tube. Coated seeds were placed in an open Petri plate for 30-min to dry. Seeds were sown 10-per pot, set in a greenhouse, and maintained under standard conditions with mercury lamp lighting supplementing daylight from 3:00 pm to 10:00 pm.
Stir constantly. 5% solution—after the 10% solution has equilibrated for 15-min, add 0.5-mL of 10% solution to 0.5-mL of sterile water. Stir constantly. 2.5% solution—add 0.25-mL of 10% solution to 0.75-mL of sterile water. Stir constantly. 1% solution—add 0.1-mL of 10% solution to 0.9-mL of sterile water. Stir constantly. […] Gently roll and invert the tube for 5 min to evenly coat each seed without causing damage. Remove seeds from tube by pouring carefully into an empty Petri plate. Leave exposed (lid off) and air dry seeds for 30 min.
(1) Germination: Place 50 seeds from each treatment onto 25 individual moistened blotters in large Petri plates. Incubate at room temperature for 2-weeks with or without light. Score germination at 7- and 14-days. (2) Emergence: Sow 50 seeds from each treatment into five pots (10-seeds per pot and five pots per treatment). Place in a greenhouse at 22° C. with ample air circulation. Use mercury lamps to supplement lighting (on at 3:00 pm; off at 10:00 pm) if necessary. For pre-emergent plants, water pots as needed to keep soil moist but not wet. Water emergent plants daily. Score emergence at 21 and 28 days.
After seeds were treated and air-dried, they were sown in potted, non-sterile soil in a greenhouse. Alternatively they were placed on moist blotters in large Petri plates.

healthy dry bean seed = assay: Germination of healthy dry bean seed; type: in vivo
[6] = system: Pseudomonas syringae pv. phaseolicola on bean seed surface; settings: Experiments 1-3; for Total microbial score: day 6, bacteria + fungi
[7] = lowest concentration (5000 ppm)
[8] = AC Polaris Inoculated, vs untreated seeds
[9] = AC Polaris seeds, inoculated w/ bacteria, 0.1%, 1 h, scored day 6 on scale 0-5, mean of 6 seeds
[10] = Othello Inoculated, vs untreated seeds

O=S(=O)([O-])[O-].[Cu+2] [Copper sulfate]
PspHB-9 Planktonic cell counts ([1]; 1250 ppm): 2.95 log10
PspHB-9 Planktonic cell counts ([1]; 2900 ppm): 0 log10
PspHB-9 Planktonic cell counts ([1]; 4600 ppm): 0 log10
reduction of planktonics [1, 7]: ~48%
PspHB-9 Biofilm cell counts ([2]; 1250 ppm): 5.15 log10
PspHB-9 Biofilm cell counts ([2]; 2900 ppm): 0 log10
PspHB-9 Biofilm cell counts ([2]; 4600 ppm): 0 log10
reduction of biofilms [2, 7]: 17%
concentration required to be effective ([2]; planktonic cells and biofilms): 11460 ppm

oxysilver nitrate [High valency silver]
Ecc biofilm cell counts (unlabelled fourth line = mean of 3) ([3]; 50 ppm): 1.53 log10
Log reduction of Ecc biofilms ([3]; 50 ppm): 2.23
Ecc biofilm cell counts (single replicates) ([3]; 50 ppm, listed as Oxy): 1.60 log10 and 1.00 log10 and 2.00 log10
Ecc biofilm cell counts (unlabelled fourth line = mean of 3) ([3]; 100 ppm): 0.65 log10
Log reduction of Ecc biofilms ([3]; 100 ppm): 3.11
Ecc biofilm cell counts (single replicates) ([3]; 100 ppm, listed as Oxy): 0 log10 (2×) and 1.95 log10
Ecc biofilm cell counts (unlabelled fourth line = mean of 3) ([3]; 200 ppm): 0.70 log10
Log reduction of Ecc biofilms ([3]; 200 ppm): 3.06
Ecc biofilm cell counts (single replicates) ([3]; 200 ppm, listed as Oxy): 0 log10 (2×) and 2.11 log10
Ecc biofilm cell counts (single replicates) ([3]; 500 ppm): 0 log10
Ecc biofilm cell counts (unlabelled fourth line = mean of 3) ([3]; 500 ppm): 0.00 log10
Log reduction of Ecc biofilms ([3]; 500 ppm): 3.76
anti-microbial efficacy compared with nanocrystalline silver ([3]; plant pathogenic Erwinia spp.): as efficacious as nanocrystalline silver
Bacterial reduction ([4]; AC Polaris Non-inoculated): 67% and 90% and 100%
Fungal reduction ([4]; AC Polaris Non-inoculated): 100% and 62%
Total microbial reduction ([4]; AC Polaris Non-inoculated): 81% and 78% and 100%
Bacterial reduction ([4]; Othello Non-inoculated): 80% and 62% and 88%
Fungal reduction ([4]; Othello Non-inoculated): 70% and 100% and 74%
Total microbial reduction ([4]; Othello Non-inoculated): 75% and 86% and 81%
bactericidal and fungicidal efficacy ([4]; various bacterial and fungal species associated with seed surfaces, 3 independent replications): good bactericidal and fungicidal efficacy
# seeds germinated ([5]; 0.1%): 53
% germination ([5]; 0.1%): 35.3%
Day to 25% germination ([5]; 0.1%): 5 days
# seeds germinated ([5]; 0.5%): 53
% germination ([5]; 0.5%): 35.3%
Day to 25% germination ([5]; 0.5%): 5 days
germination higher than Apron Maxx RTA ([5]; 1%, by day 10): 54%
increase of germination compared with the negative control (sterile water) ([5]; 1%, by day 10): 34.7%
# seeds germinated ([5]; 1%): 91
% germination ([5]; 1%): 60.7%
Day to 25% germination ([5]; 1%): 5 days
# seeds germinated ([5]; […]): 51
% germination ([5]; […]): 43.0%
Day to 25% germination ([5]; […]): 5 days
% of seeds germinated (Orford (Soybean) seeds; 0.1%): 28%
% germination (Orford (Soybean) seeds; 0.1%): 50%
% of seeds germinated (Orford (Soybean) seeds; 0.5%): 34.5%
% germination (Orford (Soybean) seeds; 0.5%): 58%
% of seeds germinated (Orford (Soybean) seeds; 1%): 59.4%
% germination (Orford (Soybean) seeds; 1%): 64%
germination rate higher than water (Orford (Soybean) seeds; 1%, after 14 days): 34%
% of seeds germinated (Orford (Soybean) seeds; […]): 29.6%
% germination (Orford (Soybean) seeds; […]): 54%
bacterial growth on treated seeds (Orford (Soybean) seeds; soybean seeds and blotters): did not appear to have major bacterial growth
# seeds germinated (healthy dry bean seed; 0.1%): 84
% germination (healthy dry bean seed; 0.1%): 84%
Day to 50% germination (healthy dry bean seed; 0.1%): 6.5 days
Day to 100% germination (healthy dry bean seed; 0.1%): 9.0 days
# seeds germinated (healthy dry bean seed; 0.5%): 86
% germination (healthy dry bean seed; 0.5%): 86%
Day to 50% germination (healthy dry bean seed; 0.5%): 6.0 days
Day to 100% germination (healthy dry bean seed; 0.5%): 9.0 days
# seeds germinated (healthy dry bean seed; 1%): 89
% germination (healthy dry bean seed; 1%): 89%
Day to 100% germination (healthy dry bean seed; 1%): 9.0 days
# seeds germinated (healthy dry bean seed; […]): 81
% germination (healthy dry bean seed; […]): 81%
Day to 100% germination (healthy dry bean seed; […]): 9.0 days
germination compared with water control or Apron Maxx RTA (healthy dry bean seed; healthy dry bean seed): more rapid germination and higher percent germination rate
PspHB-9 Planktonic cell counts ([1]; 100 ppm): 0 log10
PspHB-9 Planktonic cell counts ([1]; 500 ppm): 0 log10
PspHB-9 Planktonic cell counts ([1]; 1000 ppm): 0 log10
eradication of planktonic ([1]; at the lowest concentration): 100%
PspHB-9 Biofilm cell counts ([2]; 100 ppm): 0 log10
PspHB-9 Biofilm cell counts ([2]; 500 ppm): 0 log10
PspHB-9 Biofilm cell counts ([2]; 1000 ppm): 0 log10
eradication of biofilm ([2]; at the lowest concentration): 100%
Bacterial reduction [6, 8]: 100% and 96%
Total microbial reduction [6, 8]: 100% and 96%
Total microbial score ([6]; AC Polaris seeds, inoculated w/ bacteria, 0.1%, 1 h): 0
Total microbial score ([6]; AC Polaris seeds, inoculated w/ bacteria, 0.1%, 1 h, listed as High valency silver nitrate 1): 0.16
Bacteria score [6, 9]: 0
Fungi score [6, 9]: 0
Bacteria score ([6]; AC Polaris seeds, inoculated w/ bacteria, 0.1%, 1 h, scored day 6 on scale 0-5, mean of 6 seeds, listed as High valency silver nitrate 1): 0.16
Bacterial reduction [6, 10]: 41% and 78% and 60%
Fungal reduction [6, 10]: 78% and 75% and 100%
Total microbial reduction [6, 10]: 65% and 77% and 79%
Total microbial score ([6]; Othello seeds, inoculated w/ bacteria, 0.1%, 1 h): 1.83 and 1.32 and 1.66
